Patent US11944665B2, “Methods and compositions for modulating lymphatic vessels in the central nervous system” (University of Virginia Patent Foundation, priority 2016, dated 2024)

Assays:
[1] = tested on: 5xFAD (APPSweFILon,PSEN1*M146L*L286V) transgenic mice; assay: Visudyne ablation in 5xFAD mice, amyloid pathology (Example 9); type: in vivo; conditions: ablation every 3 weeks for 1.5 months
Text: Meningeal lymphatic ablation in 1.5 months-old 5xFAD (APPSweFILon,PSEN1*M146L*L286V) transgenic mice was achieved by ICM injection of visudyne, or vehicle as a control, followed by a step of transcranial photoconversion. This procedure was repeated every 3 weeks, for a total of 1.5 months. Meninges of 5xFAD mice from the different groups were stained with DAPI and for LYVE-1 and Aβ. Aβ aggregates were detected in the meninges of 5xFAD mice that undergone lymphatic ablation by visudyne, but not in the meninges of vehicle-injected mice. Aβ aggregates formed specially around the sinuses and in the cerebellar meninges. Hippocampus was stained for DAPI and Amyloid-beta in vehicle or visudyne-injected 5xFAD mice (scale bar, 1 mm, inset, 200 μm). […] Results are presented as mean±s.e.m.; n=5 per group: *P<0.05, one-tailed Mann-Whitney test.

[2] = tested on: meningeal lymphatic vessels; assay: EAE (MOG35-55) after Visudyne meningeal lymphatic ablation; type: in vivo, C57b16 mice
Method: FIG. 22 is a graph showing ablation of the meningeal lymphatic decreases EAE score. Adult C57b16 mice were injected ICV (cisterna magna) or intranasally with Visudyne that was then photoconverted (Meningeal ablation) or not (Control). On the same day, EAE was induced by injected MOG 35-55 emulsion subcutaneously. At day 17 mice were scored prior to sacrifice (brain, meninges, and spinal cord were harvested for IHC to measure the amount of demyelination and the infiltrate).
EAE clinical symptom development in laser. Visudyne (i.n.)+laser and Visudyne (i.c.m.)+laser treated mice. (mean±s.e.m. n=12-41 mice/group pooled from 3 independent experiments, ****p<0.0001, repeated measures 2 way ANOVA with Tukey's multiple comparisons test) is shown in FIG. 51A. Incidence of EAE development (day mice reach a score of 1 or above) in laser, Visudyne (i.n.)+laser and Visudyne (i.c.m.)+laser treated mice. Representative dot plots of CD4 and CD8 T cells in the spinal cord of laser and Visudyne (i.c.m.)+laser mice during late onset EAE (D17) are shown in FIG. 51C. Quantification of the number of CD4 T cells in the spinal cord of laser and Visudyne (i.c.m.)+laser treated mice at D17 post immunization. (mean±s.e.m. n=4/5 mice per group, representative of 2 independent experiments, **p=0.005, unpaired t test) is shown in FIG. 51D. […] Accordingly, it is contemplated that ablation of lymphatic vessels in accordance with some embodiments herein can ameliorate symptoms and disease development of MS, for which EAE (MOG) is a model.

[3] = tested on: meningeal lymphatic vessels; assay: Visudyne ablation, OVA-A647 CSF tracer drainage and brain influx (Example 2); type: in vivo, C57BL/6 mice; conditions: vs vehicle
Method: Adult C57BL/6 mice were injected with visudyne or vehicle (ICM) followed by a step of photoconversion. 7 days post ablation, 2.5 μg of ovalbumin-Alexa647 (OVA-A647) was injected into the CSF (ICM) and mice were transcardially perfused with saline 2 h after. j, Representative sections of dcLNs were stained with DAPI and LYVE-1, and levels of drained OVA-A647 were measured, and representative sections are shown for vehicle (FIG. 24A) and visudyne (FIG. 24B). OVA-A647 alone is shown in the inset in the upper right corner of each of FIGS. 24A and 24B, and LYVE-1 alone is shown in the inset in the lower right corner of each of FIGS. 24A and 24B.

APPSwe transgenic mice = assay: Visudyne ablation in APPSwe mice, Morris water maze (Example 10); type: in vivo; conditions: APPSwe mice 6-7 months-old, ablation every 2 weeks for 1 month, vs vehicle
Text: Adult (6-7 months-old) APPSwe transgenic mice were anesthetized, injected with visudyne (ICM), or vehicle as a control, and submitted to a step of transcranial photoconversion, every 2 weeks for a total of 1 month. […] Results are presented as mean±s.e.m.; n=9 per group; *P<0.05, two-way ANOVA—Repeated Measures, with Bonferroni post hoc test.

Substance: verteporfin [Visudyne]
- Aβ aggregates in the meninges ([1]; not in vehicle-injected mice): detected
- amyloid plaque coverage in the hippocampus ([1]; vs vehicle): statistically significant increase
- amyloid plaque number in the hippocampus ([1]; vs vehicle): statistically significant increase
- amyloid plaque size in the hippocampus ([1]; vs vehicle): trend for increased plaque size
- EAE disease development ([2]; Visudyne (i.c.m.)+laser vs laser and Visudyne (i.n.)+laser): ameliorate disease development
- MOG-specific T cell activation in the deep cervical lymph nodes ([2]; Visudyne (i.c.m.)+laser vs laser, EAE): ameliorates MOG-specific T cell activation
- EAE score / disease severity ([2]; Visudyne ICV (cisterna magna) or intranasal, photoconverted vs not, scored day 17): decreases disease severity
- amount of OVA-A647 drained into the dcLNs ([3]; 2 h after OVA-A647 2.5 μg ICM, 7 days post ablation): significantly decreased
- OVA-A647 influx into the brain parenchyma ([3]; 2 h after OVA-A647 ICM, 7 days post ablation): significant decrease
- brain parenchyma coverage by aquaporin 4 (AQP4) expressing cells ([3]; adult mice, visudyne-induced ablation): no changes
- MWM probe and reversal (APPSwe transgenic mice): No differences
- latency to find the platform, 4th day of the acquisition phase of the MWM (APPSwe transgenic mice): Significant differences
